Series [1] relates to AtT-20 cells. In words: Dose response of spontaneous calcium oscillations by confocal Calcium Green imaging of single cells. In kind it is cell-based, mouse.
Description: Sigmoidal dose response curves were fit to each individual cell and the average response over the total population was calculated.
The treated cell samples were imaged using asymmetric imaging methods and a temporal resolution of 3 fps for up to 45 minutes total recording time. In particular, illumination (excitation) was diffraction limited while the detection (emission) was almost wide-field by opening the confocal detection pinhole but leaving the excitation pinhole closed. This allowed for increased detection efficiency, while still suppressing background fluorescence. […]
The Attofluor cell culture chamber was placed inside a PenCon temperature controlled incubator at 37° C. mounted on a DMIRB/E inverted microscope (obtained from Leica Microsystems; Wetzlar, Germany). […] The digital temperature readout of the incubator was checked with a calibrated mercury thermometer to confirm the values within 0.2° C. […]
Series [2] concerns AtT-20 cells. The series is described as follows: Cell viability control after 45 minutes of imaging and nimodipine: calcium response to high K+ depolarization. In kind it is cell-based, mouse. Conditions: 45 minutes of imaging and nimodipine treatment up to maximum dose, FIG. 4B.
Description: Cells were stained with Calcium Green, imaged and exposed to increasing drug doses for 45 minutes. […] First, untreated AtT-20 cells were imaged over a forty-five (45) minute time span with continuous recording at 3 fps. The amplitude of calcium oscillations was measured and plotted over time. […] The averaged oscillation amplitudes of an untreated cell sample over a fifty (50) minute interval for all cells is shown in FIG. 3B. […] As such, experiments were not recorded longer than 45 minutes.

As a reminder, the IC50 is the midpoint of a concentration-inhibition curve.

For the compound `COCCOC(=O)C1=C(C)NC(C)=C(C(=O)OC(C)C)C1c1cccc([N+](=O)[O-])c1` (stereo not drawn) [nimodipine, 1,4-Dihydro-2,6-dimethyl-4-(3-nitrophenyl)-3,5-pyridinedicarboxylic acid 2-methyloxyethyl 1-methylethyl ester], the IC50 in series [1] (Mus musculus, AtT20, 5 min, average over all individual cells, FIG. 5B, 5 minute interval per dose, read-out: IC50 of the averaged dose response of calcium oscillation amplitude) is 23 nM. In addition, the “Concentration giving complete inhibition of baseline spontaneous calcium oscillations (BSCOs)” value in series [1] (representative cell, FIG. 4C, concentration increased in 10-fold increments) came out at 100 nM. Also, in series [2], the “Toxicity of prolonged exposure to cells” value was “non-toxic”.

The values are drawn from US8709804B2, “Method for drug screening and characterization by calcium flux” (Cedars-Sinai Medical Center, priority 2004, dated 2014).
